# Measured values: patent publication US8258182B2, “Substituted 1,3-diphenylpropane derivatives, preparations and uses thereof” (Genfit, priority 2006, dated 2012)
# Key:
# db/db mice = assay: Plasma HDL-cholesterol, triglycerides and free fatty acids in db/db mice after per os treatment; format: in vivo, mouse; details: 50 mpk per os, 28 days
# Procedure: The effect of the compounds according to the invention is evaluated in vivo on the db/db mice by measuring the levels of HDL-cholesterol, triglycerides, and plasma free fatty acids after 28 days of a per os treatment with the compounds according to the invention.
# The hypolipidemic properties of the compounds according to the invention are evaluated in vivo by measuring the plasma levels of plasmatic lipids and by analyzing the genetic expression PPARs target genes, after treating the dyslipidemic db/db mice with the compounds according to the invention, administered by the oral route.
# Female db/db mice were kept on a 12 hour/12 hour light/dark cycle at a constant temperature of 20±3° C. After a one week acclimatization period, the mice were weighed and divided into groups of 8 animals selected such as the distribution of body weight and of plasma lipid rate, determined before the experiment, was uniform. The tested compounds were suspended in carboxymethylcellulose (Sigma C4888) and administered to the animals by intra-gastric gavage, once a day for 28 days at the chosen doses. The animals had free access to food and water (standard diet). Taking of food and weight gain are recorded throughout the experiment. At the end of the experiment, after a 4 hour fast, the animals were anesthetized and a blood sample was taken on anticoagulant (EDTA). Then the mice were weighed and euthanized. The plasma was separated by centrifugation at 3000 rotations/minute for 20 minutes. The samples were kept at +4° C. The hepatic tissue and skeletal muscle samples were taken and frozen immediately in liquid nitrogen then conserved at −80° C. for later analysis.
# Plasma triglycerides concentrations are measured by enzymatic assays (bioMérieux-Lyon-France) according to the provider's recommendations.
# Low-density lipoproteins (VLDL and LDL) are precipitated by phosphotungstate. The precipitate is eliminated by centrifugation. HDL-cholesterol present in the supernatant is measured by enzymatic assay (bioMérieux-Lyon-France) in accordance with the provider's recommendations.
# [1] = tested on: MCP1 secretion by THP1 monocytes; assay: Secretion of MCP1 by THP1 monocytes stimulated with PMA (ELISA); format: cell-based, human; details: 1 μM, 24 hours, PMA 5 ng/ml, vs DMSO alone (FIG. 4-1)
# Procedure: (§1) The anti-inflammatory effects of the compounds according to the invention were evaluated by measuring the secretion of MCP1 (Monocyte chemotactic protein-1) by THP1 monocytes treated for 24 hours with the compounds according to the invention and stimulated simultaneously with PMA (Phorbol 12-myristate 13-acetate, which promotes an inflammatory response in cells and their differentiation into macrophages).
# as §1, with “of the compound according to” for “of the compounds according to”, “into macrophages). […]” for “into macrophages).”
# The treatment medium is recovered and the MCP1 concentration is measured using the ELISA kit<<Human MCP-1 ELISA Set>>(BD OptEIA; 555179) in accordance with the manufacturer's recommendation.
# MCP1 is laid on a plate and is recognized by a anti-MCP1 specific antibody. […] The coloration resulting from the enzymating activity is proportional to the quantity of fixed MCP1 and can be measured by a spectrophotometry method. A range is performed from a point representative of a known concentration and from which the MCP1 concentration of each sample is calculated. […]
smiles,measurement,setting,value
"CCCOc1ccc(C(=O)CCc2cc(C)c(OC(C)(C)C(=O)O)c(C)c2)cc1 [Compound 8, 2-[2,6-dimethyl-4-[3-[4-(propyloxy)phenyl]-3-oxo-propyl]phenoxyl]-2-methylpropanoic acid]",plasma HDL-cholesterol rates,db/db mice; vs control animals (FIG. 3-1),significantly increased
same,circulating triglycerides rates,db/db mice; vs control animals (FIG. 3-2),very significantly decreased
same,circulating free fatty acids rates,db/db mice; vs control animals (FIG. 3-3),very significantly decreased
same,MCP1 secreted by monocytes,[1],significant reduction
